Patent publication US20140193827A1 (TEVA PHARMACEUTICAL INDUSTRIES, LTD., priority 2013, published 2014)

System: GA-primed murine splenocytes
Experiment: Tolerance method for assessing process variability

glatiramer acetate [GA]
AVG expression IRGB10 (probe ILMN_2534151): 9.691 | AVG expression LOC624610 (probe ILMN_2537948): 8.96 | AVG expression LOC666559 (probe ILMN_2540103): 10.7199 | AVG expression AUH (probe ILMN_2543417): 8.451 | AVG expression HIPK2 (probe ILMN_2545445): 7.332 | AVG expression GNG12 (probe ILMN_2546272): 9.731 | AVG expression 4930426D05RIK (probe ILMN_2548681): 7.1 | AVG expression A130093I21RIK (probe ILMN_2553041): 7.932 | AVG expression A630006E02RIK (probe ILMN_2560567): 9.937 | AVG expression NDR3 (probe ILMN_2571414): 6.289 | AVG expression GAD1 (probe ILMN_2573826): 6.891 | AVG expression B930094H08R1K (probe ILMN_2578341): 6.497 | AVG expression D530007E13RIK (probe ILMN_2581681): 8.386 | AVG expression IL8RA (probe ILMN_2588216): 6.682 | AVG expression PLTP (probe ILMN_2589401): 7.226 | AVG expression IL27RA (probe ILMN_2591156): 8.583 | AVG expression BC021614 (probe ILMN_2591342): 7.519 | AVG expression QPRT (probe ILMN_2591754): 7.245 | AVG expression genericLYRP1 (probe ILMN_2592486): 7.785 | AVG expression SCG5 (probe ILMN_2592953): 6.961 | AVG expression DOCK10 (probe ILMN_2593143): 11.3 | AVG expression IGTP (probe ILMN_2593554): 12.78 | AVG expression KCNK13 (probe ILMN_2593787): 6.48 | AVG expression NSDHL (probe ILMN_2594521): 8.078 | AVG expression NSDHL (probe ILMN_2594525): 8.365 | AVG expression LOC100046232 (probe ILMN_2595732): 11.55 | AVG expression RGS1 (probe ILMN_2596596): 8.683 | AVG expression SLC44A2 (probe ILMN_2599719): 11.36 | AVG expression MPO (probe ILMN_2600421): 7.594 | AVG expression OVGP1 (probe ILMN_2600928): 6.54 | AVG expression A130092J06RIK (probe ILMN_2601453): 10.81 | AVG expression CREM (probe ILMN_2602899): 7.714 | AVG expression KLF2 (probe ILMN_2604029): 11.34 | AVG expression RANBP10 (probe ILMN_2605453): 9.654 | AVG expression AI646023 (probe ILMN_2605858): 6.049 | AVG expression AGFG1 (probe ILMN_2606072): 9.007 | AVG expression PDLIM4 (probe ILMN_2606162): 9.727 | AVG expression ACOT7 (probe ILMN_2606180): 9.205 | AVG expression CMAH (probe ILMN_2606825): 7.634 | AVG expression CHI3L1 (probe ILMN_2609813): 9.339 | AVG expression IFT172 (probe ILMN_2611450): 8.856 | AVG expression SLC25A19 (probe ILMN_2611532): 9.008 | AVG expression SERPINB6B (probe ILMN_2611755): 8.188 | AVG expression ARHGEF18 (probe ILMN_2612125): 10.09 | AVG expression LSS (probe ILMN_2614161): 9.397 | AVG expression B3GNT8 (probe ILMN_2614889): 8.954 | AVG expression DPP4 (probe ILMN_2615096): 9.69 | AVG expression CHAC1 (probe ILMN_2617468): 8.051 | AVG expression C330008K14RIK (probe ILMN_2618148): 10.14 | AVG expression SLC2A6 (probe ILMN_2618918): 10.76 | AVG expression LGALS1 (probe ILMN_2619107): 10.71 | AVG expression ERAF (probe ILMN_2619200): 8.714 | AVG expression PRNP (probe ILMN_2619316): 9.719 | AVG expression ATF3 (probe ILMN_2619408): 6.791 | AVG expression RGS1 (probe ILMN_2625377): 9.769 | AVG expression ACSS1 (probe ILMN_2628174): 10.26 | AVG expression SOCS2 (probe ILMN_2628178): 9.548 | AVG expression ASAH3L (probe ILMN_2629112): 6.995 | AVG expression CPM (probe ILMN_2629191): 9.17 | AVG expression PPAP2B (probe ILMN_2630993): 7.507 | AVG expression TMEM71 (probe ILMN_2631610): 6.536 | AVG expression CTLA4 (probe ILMN_2631752): 8.62 | AVG expression ACOT7 (probe ILMN_2632264): 11.36 | AVG expression SOCS1 (probe ILMN_2634796): 7.681 | AVG expression IGH-VJ558 (probe ILMN_2635272): 13.22 | AVG expression AXUD1 (probe ILMN_2636403): 10.85 | AVG expression PLA2G12A (probe ILMN_2636536): 9.884 | AVG expression SLAMF7 (probe ILMN_2638491): 8.628 | AVG expression HSPD1 (probe ILMN_2639036): 9.439 | AVG expression AK2 (probe ILMN_2641360): 10.39 | AVG expression GTF2I (probe ILMN_2642462): 11.52 | AVG expression EMP1 (probe ILMN_2642913): 7.96 | AVG expression ASNS (probe ILMN_2643513): 9.742 | AVG expression THY1 (probe ILMN_2644350): 11.24 | AVG expression MVD (probe ILMN_2645275): 9.423 | AVG expression SAMSN1 (probe ILMN_2646322): 11.87 | AVG expression JUN (probe ILMN_2646625): 8.291 | AVG expression CENTD1 (probe ILMN_2646891): 10.77 | AVG expression SIGLECG (probe ILMN_2648454): 9.552 | AVG expression GPNMB (probe ILMN_2648669): 7.401 | AVG expression MAN2A2 (probe ILMN_2650255): 6.819 | AVG expression ARHGAP9 (probe ILMN_2650739): 9.141 | AVG expression SLC12A7 (probe ILMN_2650953): 6.744 | AVG expression genericK1 (probe ILMN_2651886): 11.36 | AVG expression LRG1 (probe ILMN_2652500): 6.12 | AVG expression IFI47 (probe ILMN_2652857): 11.72 | AVG expression SESN1 (probe ILMN_2654074): 10.45 | AVG expression MYO6 (probe ILMN_2656854): 8.468 | AVG expression IFITM3 (probe ILMN_2658501): 11.43 | AVG expression TG (probe ILMN_2658878): 7.479 | AVG expression DGKA (probe ILMN_2658961): 11.07 | AVG expression IL7R (probe ILMN_2659739): 6.443 | AVG expression ACOT7 (probe ILMN_2660182): 8.55 | AVG expression ST6GALNAC4 (probe ILMN_2660837): 8.481 | AVG expression SCML4 (probe ILMN_2661185): 8.584 | AVG expression RAB35 (probe ILMN_2662097): 11.43 | AVG expression LMNA (probe ILMN_2662387): 8.27 | AVG expression SLAMF9 (probe ILMN_2663249): 8.243 | AVG expression EPHX1 (probe ILMN_2664224): 9.837 | AVG expression 3110013H01RIK (probe ILMN_2664726): 8.045 | AVG expression RIN3 (probe ILMN_2665545): 9.015 | AVG expression HEMK1 (probe ILMN_2666272): 9.174 | AVG expression PRG4 (probe ILMN_2668333): 5.989 | AVG expression HP (probe ILMN_2668509): 7.287 | AVG expression HP (probe ILMN_2668510): 7.507 | AVG expression CTSA (probe ILMN_2669714): 9.205 | AVG expression KIF1B (probe ILMN_2670778): 8.422 | AVG expression PFKP (probe ILMN_2673233): 8.097 | AVG expression 2310047A01RIK (probe ILMN_2675922): 7.606 | AVG expression GRIFIN (probe ILMN_2676543): 6.233 | AVG expression RNF144A (probe ILMN_2678127): 7.59 | AVG expression MNS1 (probe ILMN_2678431): 8.22 | AVG expression DUSP10 (probe ILMN_2678724): 8.26 | AVG expression RASGRP2 (probe ILMN_2678726): 6.734 | AVG expression IL7R (probe ILMN_2680827): 8.445 | AVG expression BCL2 (probe ILMN_2682162): 8.675 | AVG expression NALP6 (probe ILMN_2684600): 6.205 | AVG expression HMHA1 (probe ILMN_2685023): 11.42 | AVG expression CCR5 (probe ILMN_2685392): 7.052 | AVG expression CCR5 (probe ILMN_2685393): 7.202 | AVG expression IFNG (probe ILMN_2685712): 11.16 | AVG expression PRM1 (probe ILMN_2687652): 6.849 | AVG expression MCOLN2 (probe ILMN_2689401): 7.5921 | AVG expression PKIB (probe ILMN_2690241): 7.745 | AVG expression JAKMIP1 (probe ILMN_2690460): 9.597 | AVG expression KLHL14 (probe ILMN_2691014): 6.305 | AVG expression 9330186A19RIK (probe ILMN_2692554): 6.749 | AVG expression TGM2 (probe ILMN_2692615): 8.055 | AVG expression ERO1LB (probe ILMN_2692960): 10.32 | AVG expression CCDC125 (probe ILMN_2693679): 7.065 | AVG expression PNPLA7 (probe ILMN_2695047): 7.637 | AVG expression KIFC2 (probe ILMN_2695158): 6.733 | AVG expression PHF11 (probe ILMN_2696491): 9.238 | AVG expression PHF11 (probe ILMN_2696492): 9.454 | AVG expression MSCP (probe ILMN_2696609): 8.264 | AVG expression SLC25A37 (probe ILMN_2696610): 8.278 | AVG expression CD3D (probe ILMN_2697415): 11.45 | AVG expression HIST1H3H (probe ILMN_2698519): 8.014 | AVG expression RGS10 (probe ILMN_2699531): 9.937 | AVG expression ITGAE (probe ILMN_2699898): 7.502 | AVG expression CCND2 (probe ILMN_2700168): 10.82 | AVG expression DENND5B (probe ILMN_2700354): 7.911 | AVG expression IBRDC3 (probe ILMN_2700689): 9.29 | AVG expression LGALS7 (probe ILMN_2703182): 6.931 | AVG expression STAC2 (probe ILMN_2703563): 6.876 | AVG expression FCRLA (probe ILMN_2703829): 11.55 | AVG expression LIMD2 (probe ILMN_2705878): 8.037 | AVG expression SYNGR2 (probe ILMN_2706231): 11.42 | AVG expression SYNGR2 (probe ILMN_2706232): 11.09 | AVG expression LOC100046608 (probe ILMN_2706514): 8.612 | AVG expression GPR83 (probe ILMN_2707941): 9.205 | AVG expression 5100A8 (probe ILMN_2710905): 12.62 | AVG expression IRGM1 (probe ILMN_2711172): 7.157 | AVG expression LOC100047619 (probe ILMN_2711948): 10.95 | AVG expression TIMP2 (probe ILMN_2712867): 6.749 | AVG expression CHI3L3 (probe ILMN_2712986): 7.589 | AVG expression SDC3 (probe ILMN_2715042): 9.146 | AVG expression SLC12A6 (probe ILMN_2716511): 9.952 | AVG expression MAPK11 (probe ILMN_2716622): 8.853 | AVG expression RGL1 (probe ILMN_2717176): 7.561 | AVG expression TCF7 (probe ILMN_2717975): 8.216 | AVG expression CISH (probe ILMN_2718330): 11.35 | AVG expression SLAMF1 (probe ILMN_2721571): 9.069 | AVG expression CD3G (probe ILMN_2722784): 10.75 | AVG expression CCR8 (probe ILMN_2724465): 6.962 | AVG expression MAPK12 (probe ILMN_2724570): 6.86 | AVG expression IL2 (probe ILMN_2725259): 7.49 | AVG expression NSDHL (probe ILMN_2725402): 8.035 | AVG expression CD9 (probe ILMN_2725414): 8.904 | AVG expression SYTL3 (probe ILMN_2725448): 7.03 | AVG expression SERPINA3G (probe ILMN_2725927): 13.9 | AVG expression EN2 (probe ILMN_2726471): 6.583 | AVG expression B4GALNT1 (probe ILMN_2728270): 10.26 | AVG expression 5830431A10R1K (probe ILMN_2729252): 7.881 | AVG expression HIST1H3D (probe ILMN_2729958): 9.844
